Source: patent US20070207989A1, “DITERPENE DERIVATIVES FOR THE TREATMENT OF CARDIOVASCULAR, CANCER AND INFLAMMATORY DISEASES” (SaviPu Pharmaceuticals, priority 2006, published 2007)

Legend:
endothelin receptor = settings: cited from earlier work
ETB receptor = target: T1, ETB receptor (Homo sapiens, UniProt P24530); settings: cited from earlier work
T1 sequence (P24530 27-442): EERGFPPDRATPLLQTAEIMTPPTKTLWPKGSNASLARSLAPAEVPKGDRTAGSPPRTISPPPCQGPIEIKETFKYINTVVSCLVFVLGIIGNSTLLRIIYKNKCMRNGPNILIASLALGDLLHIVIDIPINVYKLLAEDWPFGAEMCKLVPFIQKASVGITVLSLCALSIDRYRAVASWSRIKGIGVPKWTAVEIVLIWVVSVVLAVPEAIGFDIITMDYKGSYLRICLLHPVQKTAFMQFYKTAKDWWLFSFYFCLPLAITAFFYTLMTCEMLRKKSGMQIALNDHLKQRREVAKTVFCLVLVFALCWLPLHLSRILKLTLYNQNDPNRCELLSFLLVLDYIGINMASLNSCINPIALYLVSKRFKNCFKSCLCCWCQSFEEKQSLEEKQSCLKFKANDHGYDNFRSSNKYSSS

ETA receptor = target: T2, ETA receptor (Homo sapiens, UniProt P25101); settings: cited from earlier work
T2 sequence (P25101 21-427): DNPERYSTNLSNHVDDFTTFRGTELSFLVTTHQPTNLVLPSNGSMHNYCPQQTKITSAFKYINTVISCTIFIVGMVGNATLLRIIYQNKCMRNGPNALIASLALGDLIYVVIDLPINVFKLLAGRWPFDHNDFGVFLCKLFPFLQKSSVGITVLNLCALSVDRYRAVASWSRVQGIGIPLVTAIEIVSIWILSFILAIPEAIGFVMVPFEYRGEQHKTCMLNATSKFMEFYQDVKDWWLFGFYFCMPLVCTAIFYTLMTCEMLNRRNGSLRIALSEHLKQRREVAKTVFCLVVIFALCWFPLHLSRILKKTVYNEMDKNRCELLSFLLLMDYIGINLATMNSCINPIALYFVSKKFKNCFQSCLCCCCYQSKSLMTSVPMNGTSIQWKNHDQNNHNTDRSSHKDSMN

NF-κB [1] = assay: inhibition of NF-κB / NF-κB binding to κB consensus DNA
[2] = target: T3, endothelin receptor A (ETA) (Homo sapiens, UniProt P25101); assay: inhibition of endothelin receptor A (ETA)
T3 sequence (P25101 21-427): T2 sequence (P25101 21-427)

NF-κB [3] = settings: cited from earlier work
tumor cell lines = assay: inhibition of tumor cell lines; format: cell-based
carcinoma cell lines = settings: four cell lines; cited from earlier work
human cancer cell lines = settings: cited from earlier work

Cc1noc(NS(=O)(=O)c2cccc3c(N(C)C)cccc23)c1C [BMS-1 82874]
endothelin receptor antagonist activity / binding (in words) (endothelin receptor): active

COc1cccc(Oc2c(NS(=O)(=O)c3ccc(C(C)(C)C)cc3)ncnc2OCCO)c1 [Ro-46-2005]
endothelin receptor antagonist activity / binding (in words) (endothelin receptor): orally active non-peptidic antagonist

CCCOc1ccc2c(c1)[C@@H](c1ccc(OC)cc1OCC(=O)O)[C@H](C(=O)O)[C@H]2c1ccc2c(c1)OCO2 [SB-209670]
affinity for ETB receptor (concentration range in words) (ETB receptor): nanomolar | affinity for ETA receptor (concentration range in words) (ETA receptor): subnanomolar

Cc1coc2c1C(=O)C(=O)c1c-2ccc2c1CCCC2(C)C [compound 8, tanshinone IIA]
inhibition of NF-κB (NF-κB [1]): modest inhibition | inhibition of endothelin receptor A (ETA) [2]: modest inhibition | blocking of NFκB binding to κB consensus DNA (NF-κB [3]): block NFκB from binding to κB consensus DNA | inhibition of tumor cell lines (tumor cell lines): modest inhibition | potency against carcinoma cell lines (in words) (carcinoma cell lines): lack significant activity

C=C1CCCc2c1ccc1c2C(=O)C(=O)c2c(C)coc2-1 [compound 9, methylene tanshinquinone]
potency against carcinoma cell lines (in words) (carcinoma cell lines): more potent than any of the tanshindiols

COC(=O)[C@@]1(C)CCCc2c1ccc1c2C(=O)C(=O)c2c(C)coc2-1 [compound 10, methyl tanshinonate]
potency against carcinoma cell lines (in words) (carcinoma cell lines): equally potent as the tanshindiols

Cc1coc2c1C(=O)C(=O)c1c-2ccc2c1CCCC2(C)CO (centres unmarked) [compound 11, tanshinone IIB]
potency against carcinoma cell lines (in words) (carcinoma cell lines): very little activity

Cc1cccc2c1ccc1c3occ(C)c3c(=O)oc21 [compound 20, neo-tanshinlactone]
potency relative to tamoxifen citrate (human cancer cell lines; breast cancer, in some cases): ten times more potent | selectivity relative to tamoxifen citrate (human cancer cell lines; breast cancer, in some cases): twenty times more selective | effectiveness against human cancer cell lines (human cancer cell lines; several human cancer cell lines, particularly breast cancer): very effective

COc1cc(OC)nc(O[C@H](C(=O)O)C(OC)(c2ccccc2)c2ccccc2)n1 [darusentan]
endothelin receptor antagonist activity / binding (in words) (endothelin receptor): effective endothelin receptor antagonists

Cc1coc2c1C(=O)C(=O)c1c-2ccc2c(C)cccc12 [tanshinone 17]
potency against carcinoma cell lines (in words) (carcinoma cell lines): lack significant activity
